Experimental data as given in paper PMC6216040, “Repurposing of an old drug: In vitro and in vivo efficacies of buparvaquone against Echinococcus multilocularis” (International Journal for Parasitology: Drugs and Drug …, 2018).
Where two headings read alike, the source gives them in different places.

Tested on: E. multilocularis metacestodes
Experiment: PGI-assay: drug-induced damage on in vitro cultured metacestodes (Pathogen Box screening cascade and EC50)
Format: cell-based, Echinococcus multilocularis
Details: for cytotoxicity at 10 µM: Echinococcus multilocularis; for cytotoxicity at 10 µM / PGI release, % of the Tx-100 control, 5d / PGI release, % of the Tx-100 control, 12d: singlets, 10 µM
[1] = 120 h, 5 days of incubation, read-out: PGI release, % of the Tx-100 control, 5d
[2] = 288 h, 12 days of incubation, read-out: PGI release, % of the Tx-100 control, 12d
[3] = confirmatory screening at 10 µM in triplicates, 5 days of incubation, values as % of Tx-100 control
[4] = confirmatory screening at 10 µM in triplicates, 12 days of incubation, values as % of Tx-100 control

| Compound | PGI release, % of the Tx-100 control, 5d (5 days of incubation) | PGI release, % of the Tx-100 control, 12d (12 days of incubation) | other results |
| --- | --- | --- | --- |
| C[C@H]1c2cccc(O)c2C(=O)C2=C(O)[C@]3(O)C(=O)C(C(N)=O)=C(O)[C@@H](N(C)C)[C@@H]3[C@@H](O)[C@@H]21 [MMV000011, Doxycycline, reference compound] |  |  | cytotoxicity at 10 µM [1]: 3.26%; cytotoxicity at 10 µM [2]: -0.0343% |
| COc1cc(NC(C)CCCN)c2ncccc2c1 (stereo not shown) [MMV000023, Primaquine, reference compound] |  |  | cytotoxicity at 10 µM [1]: -0.23%; cytotoxicity at 10 µM [2]: 17.6% |
| CCN(CC)CCCCCCNc1cc(OC)cc2c(C)ccnc12 [MMV000063, Sitamaquine, reference compound] |  |  | cytotoxicity at 10 µM [1]: -0.0141%; cytotoxicity at 10 µM [2]: 10.8% |
| O=S(=O)(c1ccc(Cl)cc1)N1CCN(C(=S)NCc2ccco2)CC1 [MMV000858] | -0.26% | 2.40% |  |
| COc1cccc2c(C)nc(N=C(N)N)nc12 [MMV000907] | -2.91% | 1.72% |  |
| CCCS(=O)(=O)N1CCC(CO)(Cc2ccccc2C(F)(F)F)CC1 [MMV001059] | 1.56% | 1.44% |  |
| COC(=O)C1=C(C)NC(C)=C(C(=O)OC(C)C)C1c1cccc2nonc12 (stereo not shown) [MMV001493, Isradipine, reference compound] |  |  | cytotoxicity at 10 µM [1]: 0.84%; cytotoxicity at 10 µM [2]: 0.0436% |
| CC1CS(=O)(=O)CCN1/N=C/c1ccc([N+](=O)[O-])o1 (stereo not shown) [MMV001499, Nifurtimox, reference compound] |  |  | cytotoxicity at 10 µM [1]: 2.54%; cytotoxicity at 10 µM [2]: 3.97% |
| CNCCC(Oc1ccc(C(F)(F)F)cc1)c1ccccc1 (stereo not shown) [MMV001561, Fluoxetine, reference compound] |  |  | cytotoxicity at 10 µM [1]: -1.25%; cytotoxicity at 10 µM [2]: -5.98% |
| O=C(C1CCCCC1)N1CC(=O)N2CCc3ccccc3C2C1 (stereo not shown) [MMV002529, Praziquantel, reference compound] |  |  | cytotoxicity at 10 µM [1]: -0.87%; cytotoxicity at 10 µM [2]: -0.49% |
| CCN(CC)C(=O)N1CCN(C)CC1 [MMV002816, Diethylcarbamazine, reference compound] |  |  | cytotoxicity at 10 µM [1]: -0.92%; cytotoxicity at 10 µM [2]: -1.56% |
| Oc1c(I)cc(I)c2cccnc12 [MMV002817, Diiodohydroxyquinoline, reference compound] |  |  | cytotoxicity at 10 µM [1]: -1.42%; cytotoxicity at 10 µM [2]: -0.41% |
| CN1CCCN(C(c2ccccc2)c2ccc(Cl)cc2)CC1 (stereo not shown) [MMV004168] | -0.40% | 76.56% | PGI release, % of Tx-100 control, average, 5d [3]: -1.18%; PGI release, % of Tx-100 control, average, 12d [4]: 4.34% |
| O=C1Nc2ccc(Br)cc2C12NCCc1c2[nH]c2ccccc12 (stereo not shown) [MMV006239] | 0.78% | 2.27% |  |
| Cc1ccc2[nH]c3c(NCCN(C)C)ncnc3c2c1 [MMV006372] | 0.48% | -0.11% |  |
| COc1cc2ncnc(NC3CCN(Cc4ccccc4)CC3)c2cc1OC [MMV006741] | -1.05% | 0.30% |  |
| Cc1cc(Cl)c(S(=O)(=O)N2CCCC2)cc1OCC(=O)NC1CCCCC1 [MMV006833] | 0.0374% | -0.28% |  |
| CN(C)c1cc(NC(=O)Nc2ccccc2)c2ccccc2n1 [MMV006901] | 13.97% | 19.56% |  |
| Cc1cc(NC(=O)c2ccc(S(=O)(=O)N(Cc3ccccc3)C(C)C)cc2)no1 [MMV007133] | -0.95% | 0.46% |  |
| COc1cc(OC)cc(C(=O)NCC2Cc3cc(Cl)cc(-c4ccncc4)c3O2)c1 (stereo not shown) [MMV007471] | 1.94% | 7.77% |  |
| Cc1cc(C)n(-c2ccc(NC(=O)C3CCN(Cc4cnc(C)s4)CC3)cc2)n1 [MMV007625] | 0.65% | 25.58% | PGI release, % of Tx-100 control, average, 5d [3]: -1.00%; PGI release, % of Tx-100 control, average, 12d [4]: -1.56% |
| CCOc1ccc(-c2nc(NC(=O)CS(=O)(=O)c3ccccc3)sc2C)cc1 [MMV007638] | -0.28% | 0.13% |  |
| O=C(NC1CC1)c1ccc(CSCc2ccccc2Cl)o1 [MMV007803] | -0.54% | -0.13% |  |
| Nc1ccc(C(=O)Nc2ccc(-c3nc4ccccc4o3)cc2)cc1 [MMV007920] | 0.08% | -0.69% |  |
| COc1ccc(CN2CCOc3ccc(C(C)(O)CN(C)C)cc3C2)cc1C (stereo not shown) [MMV008439] | -0.31% | -1.11% |  |
| Cc1cc(C(=O)Nc2cnn(Cc3ccc(Cl)cc3Cl)c2)no1 [MMV009054] | -0.80% | -0.25% |  |

| Compound | PGI release, % of the Tx-100 control, 5d (5 days of incubation) | PGI release, % of the Tx-100 control, 12d (12 days of incubation) | other results |
| --- | --- | --- | --- |
| O=C(C1CCN(c2nnnn2-c2ccccc2)CC1)N1CCc2ccccc2C1 [MMV009135] | -0.49% | -1.30% |  |
| COc1ccc(-c2cnc3ccc(NCc4ccc(S(N)(=O)=O)cc4)nn23)cn1 [MMV010545] | -0.28% | -0.35% |  |
| COc1cc(-c2cc(-c3ccc(S(C)(=O)=O)cc3)cnc2N)ccc1O [MMV010576] | -0.22% | -2.40% |  |
| c1csc(-c2cnc3sc(NCC4CCOCC4)nn23)c1 [MMV010764] | -0.61% | -4.41% |  |
| Cc1cc(Nc2ccc(C(F)(F)F)cc2)n2ccnc2n1 [MMV011229] | -0.86% | -1.35% |  |
| COc1ccc(CCN2CCC(NCc3cccc(N(C)C)c3)CC2)cc1 [MMV011511] | 1.21% | 4.25% |  |
| NCC(=O)N1CCn2c(nc(-c3ccccc3)c2Nc2ccc3c(c2)OCO3)C1 [MMV011691] | 1.25% | 2.05% |  |
| FC(F)(F)c1cnc(Sc2nnc(-c3ccncc3)o2)c(Cl)c1 [MMV011765] | 0.33% | 0.66% |  |
| Cc1ccc(NC(=O)c2nc[nH]c2C(=O)Nc2nc3ccccc3[nH]2)c(C)c1 [MMV011903] | 41.66% | 94.00% | PGI release, % of Tx-100 control, average, 5d (1 µM, triplicates, 5 days of incubation): -2.96%; PGI release, % of Tx-100 control, average, 12d (1 µM, triplicates, 12 days of incubation): -9.52%; activity in the screen at 10 μM (confirmed in triplicates, >20% relative PGI release) (10 μM, 5 and 12 days): active; PGI release, % of Tx-100 control, average, 5d [3]: 4.49%; PGI release, % of Tx-100 control, average, 12d [4]: 34.00% |
| Cc1nc2ccccn2c1C(=O)NCc1ccc(Cl)cc1 [MMV012074] | 0.39% | -0.51% |  |
| Cc1cc(Nc2ccncc2)n2nc(C)c(-c3ccccc3Cl)c2n1 [MMV016136] | 0.97% | 2.16% |  |
| Cc1ccc(-c2cc(C(=O)Nc3cccnc3)c3cc(Br)ccc3n2)cc1 [MMV016838] | -0.19% | -0.0545% |  |
| Cc1cc(C)n2nc(C(=O)Nc3cc(C(F)(F)F)ccc3N3CCOCC3)nc2n1 [MMV019087] | -0.91% | -0.17% |  |
| Cc1ccc2c(c1C)NC(=O)C21NN=C(c2ccccc2)S1 (stereo not shown) [MMV019189] | 4.07% | -1.23% |  |
| COc1ccc(C2CC(c3cccs3)=NN2C(=O)c2ccco2)cc1OC (stereo not shown) [MMV019234] | 0.82% | 6.10% |  |
| CCC(NC(=O)c1ccccc1NC(=O)c1ccc(C)cc1)C(=O)OC (stereo not shown) [MMV019551] | -0.56% | 0.21% |  |
| CCN(CC)S(=O)(=O)c1ccc(Cl)c(C(=O)Nc2ccc3nc(C)sc3c2)c1 [MMV019721] | -0.43% | -1.86% |  |
| Cc1ccc(S(=O)(=O)N2CCN(C(=O)c3cc(-c4ccccc4)n[nH]3)CC2)cc1 [MMV019742] | 0.16% | 0.57% |  |
| CCOc1ccccc1C(=O)Nc1cccc(-c2nc3ncccn3c2C)c1 [MMV019790] | -1.05% | 53.36% | PGI release, % of Tx-100 control, average, 5d [3]: -1.68%; PGI release, % of Tx-100 control, average, 12d [4]: -2.24% |
| Cc1ccc2cc(C3NC(=O)c4ccccc4N3)c(Cl)nc2c1 (stereo not shown) [MMV019807] | 1.08% | 2.05% |  |
| O=C(Nc1ccnc(-c2cccnc2)n1)c1cc(C(F)(F)F)cc(C(F)(F)F)c1 [MMV019838] | 1.37% | -0.96% |  |
| Cc1nn(C)cc1C(C)Nc1nncc(-c2ccc(C(F)(F)F)cc2)n1 (stereo not shown) [MMV019993] | -0.77% | -1.30% |  |
| COc1cccc(CC(=O)N2CCC(n3c(C)nc4ccc(F)cc43)CC2)c1 [MMV020081] | -1.15% | -0.33% |  |
| CC1CC1C(=O)NC1CCN(CC2(c3ccccc3)CCCCC2)CC1 (stereo not shown) [MMV020120] | -0.34% | -0.45% |  |
| CNC(=O)c1cc(S(=O)(=O)N2CCN(c3ccccn3)CC2)cs1 [MMV020136] | -0.32% | 0.25% |  |
| Cc1cc(C(=O)Nc2ccc(-c3ccccc3)cc2)no1 [MMV020152] | 0.07% | -0.81% |  |
